Laboratory results as given in patent US20230250131A1, “HYDROXYSTEROID COMPOUNDS” (Epirium Bio Inc., priority 2022, published 2023).
Several values for one entry are separate records, joined by “and”; a condition that tells them apart may be missing. Identical values can stand only once. Like-named read-outs stand apart in the source and are kept apart here.

Tested on: PGC-1α
Experiment: PGC-1α assay in differentiated C2C12 cells (ELISA-type antibody detection, absorbance at 450 nm)
Assay type: cell-based
Details: each compound tested at 0.01 nM, DMSO control as 100%; for activity at 10 pM: Mus musculus, C2C12, C2C12 myotubes
Method: The compounds of Table 2 were synthesized and tested in a PGC-1α assay.
Culture conditions: DMEM containing 25 mM glucose with 10% FBS supplementation; grown at 37° C. and 5% CO2.
Assay Conditions: C2C12 cells were cultured in DMEM supplemented in 10% FBS up to 80% confluence. The cells were further trypsinized and seeded into a 96 well plate at a density of 5000 cells/well (well volume—100 μL) (Day 0). Following attachment, the cells were allowed to reach 80-90% confluence in the plate (typically 48 hours post seeding) and further differentiated using DMEM+2% Horse Serum (200 μL/well). The media was changed every day or at least every alternate day for 5 days to allow myoblasts to differentiate into myotubes. On day 7 (post seeding), the cells were treated with standards and test compounds for PGC-1α assay.
PGC-1α assay: For the detection of PGC-1α, the cells were incubated with […] primary antibody (Merck, WH10010891M3) in PBS-T containing 5% BSA at 4° C. overnight. The cells were then washed three times with PBS-T for 5 minutes and incubated with 1:1000 dilution secondary antibody (Anti-rabbit IgG, HRP-linked Antibody, Cell Signaling) in PBS-T with […] for 1 hour at RT. Cells were washed three times with PBS-T for 5 minutes The cells were incubated with 100 μl TMB substrate solution for 30 minutes and the reaction was stopped with 100 μl of 2N H2SO4. Then the plate was read at 450 nm using ELISA plate reader and absorbance recorded. […] was calculated using DMSO control as 100%. (For plate optical density calculations, a background correction was taken at 540 nm). Each compound was tested at a concentration of 0.01 nM.

[1] = average over experiments, read-out: Single point PGC1-Alpha Assay: Average Activity (%)
[2] = individual experiments (Exp. 1-3), read-out: Single point PGC1-Alpha Assay: Activity (%)

| SMILES | activity at 10 pM [1] [%] | activity at 10 pM [2] [%] | Single point PGC1-Alpha Assay: Activity (%) (C2C12 myotubes, individual experiments (Exp. 1-3), 10 pM) |
| --- | --- | --- | --- |
| CCN1C(=O)CC[C@@]2(C)C1=CCC1C2[C@@H](O)C[C@@]2(C)C1CC[C@@H]2C(C)=O (some centres unmarked) | 116 | 116 |  |
| CCN1C(=O)CC[C@@]2(C)C1=CCC1C2[C@@H](O)C[C@@]2(C)C1CC[C@@H]2C(C)O (some centres unmarked) | 94 | 94 |  |
| CCCN1C(=O)CC[C@@]2(C)C1=CCC1C2[C@@H](O)C[C@@]2(C)C1CC[C@@H]2C(C)=O (some centres unmarked) | 109 | 109 |  |
| CCN1C(=O)CC[C@@]2(C)C1=CCC1C3CCC(C4(C)OCCO4)[C@@]3(C)C[C@](C)(O)C12 (some centres unmarked) | 119 | 119 |  |
| CCN1C(=O)CC[C@@]2(C)C1=CCC1C2[C@@](C)(O)C[C@@]2(C)C1CC[C@@H]2C(C)=O (some centres unmarked) | 118 | 118 |  |
| CCN1C(=O)CC[C@@]2(C)C1=CCC1C2[C@@](C)(O)C[C@@]2(C)C1CC[C@@H]2C(C)(C)O (some centres unmarked) | 126 | 126 |  |
| [2H][C@]1(O)C[C@@]2(C)C(CC[C@@H]2C(C)=O)C2CC=C3N(CC)C(=O)CC[C@]3(C)C21 (some centres unmarked) | 127 |  | 137% and 112% and 131% |
